In PubChem BioAssay AID256 (DTP/NCI, 2004):
Values joined by “and” are separate entries in the source; they are usually repeats but may differ in a detail not shown here. Equal values may be shown once. Toxic doses and inconclusive results are not listed. Rule for the calls: active = survival T/C of 150% or more; inactive = T/C below 125% in these data.

Test system: CD2F1 mice, L1210 leukemia ip, survival T/C
Experiment: NCI In Vivo Anticancer Drug Screen. Data for tumor model L1210 Leukemia (intraperitoneal) in CD2F1 (CDF1) mice
Details: endpoint: mean survival time, higher = longer survival
Method in brief: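 Implant tumor; dose compound or vehicle; measure endpoint in both groups; report treated divided by control.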

[1] = dose: 100.0 mg/kg/injection, schedule: Q04DX002 (ip), vehicle: saline with Tween-80
[2] = dose: 200.0 mg/kg/injection, schedule: Q01DX009 (ip), vehicle: saline

Measured: T/C

COc1cc2ccc3c4cc(OC)c(OC)cc4c[n+](C)c3c2cc1O
inactive: dose: 75.0 mg/kg/injection, schedule: Q04DX003 (ip), vehicle: Klucel (hydroxypropylcellulose) (HPC) 113 % of control | dose: 150.0 mg/kg/injection, schedule: Q04DX003 (ip), vehicle: Klucel (hydroxypropylcellulose) (HPC) 113 % of control | dose: 300.0 mg/kg/injection, schedule: Q04DX003 (ip), vehicle: Klucel (hydroxypropylcellulose) (HPC) 119 % of control

CCOC(=O)C1(C(=O)OCC)CCC(O)N1C(=O)c1ccccc1[N+](=O)[O-] (stereo not drawn)
inactive: dose: 100.0 mg/kg/injection, schedule: Q01DX001 (ip), vehicle: Klucel (hydroxypropylcellulose) (HPC) 100 % of control | dose: 200.0 mg/kg/injection, schedule: Q01DX001 (ip), vehicle: Klucel (hydroxypropylcellulose) (HPC) 96 % of control | dose: 400.0 mg/kg/injection, schedule: Q01DX001 (ip), vehicle: Klucel (hydroxypropylcellulose) (HPC) 92 % of control

CCCCSc1cc(C)nc2ccccc12
inactive: [1] 96 % of control

Cc1cc(F)ccc1[NH-].Cc1cc(F)ccc1[NH-].[Cl][Pt+2][Cl]
inactive: dose: 12.5 mg/kg/injection, schedule: Q04DX003 (ip), vehicle: saline with Tween-80 106 % of control | dose: 25.0 mg/kg/injection, schedule: Q04DX003 (ip), vehicle: saline with Tween-80 101 % of control | dose: 50.0 mg/kg/injection, schedule: Q04DX003 (ip), vehicle: saline with Tween-80 91 % of control | dose: 100.0 mg/kg/injection, schedule: Q04DX003 (ip), vehicle: saline with Tween-80 95 % of control | dose: 200.0 mg/kg/injection, schedule: Q04DX003 (ip), vehicle: saline with Tween-80 89 % of control

COc1ccc2c(O)c(C)c(=O)n(C)c2c1
inactive: [1] 96 % of control | dose: 200.0 mg/kg/injection, schedule: Q04DX002 (ip), vehicle: saline with Tween-80 96 % of control | dose: 400.0 mg/kg/injection, schedule: Q04DX002 (ip), vehicle: saline with Tween-80 93 % of control

NC(CC(=O)O)C(=O)O (stereo not drawn)
inactive: [2] 97 % of control | dose: 400.0 mg/kg/injection, schedule: Q01DX009 (ip), vehicle: saline 95 % of control | dose: 800.0 mg/kg/injection, schedule: Q01DX009 (ip), vehicle: saline 98 % of control

O=C(Nc1ccc(F)c(Cl)c1)Oc1ccc(OCc2ccccc2)cc1
inactive: dose: 50.0 mg/kg/injection, schedule: Q01DX009 (ip), vehicle: Klucel (hydroxypropylcellulose) (HPC) 87 % of control | dose: 100.0 mg/kg/injection, schedule: Q01DX009 (ip), vehicle: Klucel (hydroxypropylcellulose) (HPC) 98 % of control | dose: 200.0 mg/kg/injection, schedule: Q01DX009 (ip), vehicle: Klucel (hydroxypropylcellulose) (HPC) 93 % of control

CC(C)(N)CO
inactive: dose: 50.0 mg/kg/injection, schedule: Q01DX009 (ip), vehicle: saline 88 % of control | dose: 100.0 mg/kg/injection, schedule: Q01DX009 (ip), vehicle: saline 100 % of control | [2] 100 % of control

c1ccc([O+](c2ccccc2)c2ccccc2)cc1
inactive: dose: 0.63 mg/kg/injection, schedule: Q01DX009 (ip), vehicle: saline with Tween-80 102 % of control | dose: 1.25 mg/kg/injection, schedule: Q01DX009 (ip), vehicle: saline with Tween-80 113 % of control | dose: 2.5 mg/kg/injection, schedule: Q01DX009 (ip), vehicle: saline with Tween-80 107 % of control | dose: 5.0 mg/kg/injection, schedule: Q01DX009 (ip), vehicle: saline with Tween-80 90 % of control and 112 % of control

CC(C)CSCC1OC(n2cnc3c(N)nccc32)C(O)C1O (stereo not drawn)
inactive: dose: 3.13 mg/kg/injection, schedule: Q03HX024 (ip), vehicle: distilled water + Tween-80 100 % of control | dose: 6.25 mg/kg/injection, schedule: Q03HX024 (ip), vehicle: distilled water + Tween-80 105 % of control | dose: 12.5 mg/kg/injection, schedule: Q01DX005 (ip), vehicle: distilled water + Tween-80 107 % of control | dose: 12.5 mg/kg/injection, schedule: Q03HX024 (ip), vehicle: distilled water + Tween-80 96 % of control | dose: 25.0 mg/kg/injection, schedule: Q01DX005 (ip), vehicle: distilled water + Tween-80 115 % of control | dose: 25.0 mg/kg/injection, schedule: Q03HX024 (ip), vehicle: distilled water + Tween-80 100 % of control | dose: 50.0 mg/kg/injection, schedule: Q01DX005 (ip), vehicle: distilled water + Tween-80 100 % of control | dose: 50.0 mg/kg/injection, schedule: Q03HX024 (ip), vehicle: distilled water + Tween-80 96 % of control | dose: 100.0 mg/kg/injection, schedule: Q01DX005 (ip), vehicle: distilled water + Tween-80 88 % of control | dose: 100.0 mg/kg/injection, schedule: Q03HX024 (ip), vehicle: distilled water + Tween-80 86 % of control

Cc1ccc2nc(-c3ccc4nc(-c5ccc(N)cc5)sc4c3)sc2c1S(=O)(=O)O
inactive: dose: 100.0 mg/kg/injection, schedule: Q04DX003 (ip), vehicle: saline 109 % of control | dose: 200.0 mg/kg/injection, schedule: Q04DX003 (ip), vehicle: saline 107 % of control | dose: 400.0 mg/kg/injection, schedule: Q04DX003 (ip), vehicle: saline 112 % of control

N#Cc1ncc(-c2ccccc2)nc1C#N
inactive: dose: 100.0 mg/kg/injection, schedule: Q01DX001 (ip), vehicle: saline with Tween-80 91 % of control | dose: 200.0 mg/kg/injection, schedule: Q01DX001 (ip), vehicle: saline with Tween-80 92 % of control | dose: 400.0 mg/kg/injection, schedule: Q01DX001 (ip), vehicle: saline with Tween-80 105 % of control

Cc1ccn2c(=O)c(CCBr)c(C)nc2c1
inactive: dose: 75.0 mg/kg/injection, schedule: Q01DX001 (ip), vehicle: saline 96 % of control

CC1SC(=S)NC1=O (stereo not drawn)
inactive: dose: 100.0 mg/kg/injection, schedule: Q04DX003 (ip), vehicle: saline sonified 93 % of control | dose: 200.0 mg/kg/injection, schedule: Q04DX003 (ip), vehicle: saline sonified 113 % of control | dose: 400.0 mg/kg/injection, schedule: Q04DX003 (ip), vehicle: saline sonified 96 % of control
